Structures can show the parent of a compound that is named as a salt.
Biological target: hERG (Homo sapiens, UniProt Q12809)
Assay: cell-based
Conditions: (-LOG10(IC50), µM)

Chain of hERG (Q12809 whole entry): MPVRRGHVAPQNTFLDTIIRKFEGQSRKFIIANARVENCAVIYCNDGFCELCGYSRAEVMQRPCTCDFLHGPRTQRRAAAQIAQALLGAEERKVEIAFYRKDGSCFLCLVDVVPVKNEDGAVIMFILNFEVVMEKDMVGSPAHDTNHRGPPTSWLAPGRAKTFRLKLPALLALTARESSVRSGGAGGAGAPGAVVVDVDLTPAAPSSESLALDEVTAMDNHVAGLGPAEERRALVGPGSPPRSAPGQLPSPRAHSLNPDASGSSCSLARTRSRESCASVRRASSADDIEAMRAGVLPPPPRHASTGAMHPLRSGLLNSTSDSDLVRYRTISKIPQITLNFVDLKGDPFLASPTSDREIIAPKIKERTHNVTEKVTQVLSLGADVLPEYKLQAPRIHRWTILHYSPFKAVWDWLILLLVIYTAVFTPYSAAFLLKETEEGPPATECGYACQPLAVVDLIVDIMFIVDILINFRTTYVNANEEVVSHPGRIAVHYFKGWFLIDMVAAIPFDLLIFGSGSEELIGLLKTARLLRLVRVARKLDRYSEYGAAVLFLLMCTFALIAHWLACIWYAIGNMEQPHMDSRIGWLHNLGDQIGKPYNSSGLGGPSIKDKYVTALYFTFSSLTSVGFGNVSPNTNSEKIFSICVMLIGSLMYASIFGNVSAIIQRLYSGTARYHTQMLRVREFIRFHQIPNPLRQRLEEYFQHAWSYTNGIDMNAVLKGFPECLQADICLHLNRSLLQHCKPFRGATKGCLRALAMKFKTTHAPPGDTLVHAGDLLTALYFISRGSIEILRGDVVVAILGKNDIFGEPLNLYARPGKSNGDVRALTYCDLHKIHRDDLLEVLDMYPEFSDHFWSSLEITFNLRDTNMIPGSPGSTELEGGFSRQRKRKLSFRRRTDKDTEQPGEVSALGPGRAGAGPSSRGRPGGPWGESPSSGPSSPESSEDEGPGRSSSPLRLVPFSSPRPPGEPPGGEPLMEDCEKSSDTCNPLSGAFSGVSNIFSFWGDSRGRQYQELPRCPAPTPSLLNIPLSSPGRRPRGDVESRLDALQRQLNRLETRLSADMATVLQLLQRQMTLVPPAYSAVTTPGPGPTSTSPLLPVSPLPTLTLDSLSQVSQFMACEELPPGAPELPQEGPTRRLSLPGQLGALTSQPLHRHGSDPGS

O=[N+]([O-])c1ccccc1Nc1ccccc1 [2-Nitrodiphenylamine]
IC50: 48.7 µM

O=S(=O)(C(Cl)(Cl)Cl)C(Cl)(Cl)Cl [Bis(trichloromethyl)sulfone]
IC50: 18.8 µM

BrCC(Br)C1CCC(Br)C(Br)C1 (stereo not drawn) [1,2-Dibromo-4-(1,2-dibromoethyl)cyclohexane]
IC50: 34.5 µM

CC(=O)C1(C)CC2=C(CCCC2(C)C)CC1C (stereo not drawn) [Isocyclemone E]
IC50: 40 µM

Clc1cc(Cl)c2c(c1)N=C1CCCCCN1C2 [1,3-Dichloro-6,7,8,9,10,12-hexahydroazepino[2,1-b]quinazoline hydrochloride (1:1)]
IC50: 12.5 µM

C=CCOC(Cn1ccnc1)c1ccc(Cl)cc1Cl (stereo not drawn) [Imazalil]
IC50: 29.8 µM

CN(Cc1cc(Br)cc(Br)c1N)C1CCCCC1 [Bromhexine hydrochloride]
IC50: 12.5 µM

O=C(CCCN1CCC2(CC1)C(=O)NCN2c1ccccc1)c1ccc(F)cc1 [Spiperone]
IC50: 1.76 µM

CN1CCc2cc(Cl)c(O)cc2[C@H]2c3ccccc3CC[C@@H]21 [Ecopipam]
IC50: 10.3 µM

C[C@@H]1CN(CCCn2c3ccccc3c3ccccc32)C[C@H](C)N1 [Rimcazole dihydrochloride]
IC50: 7.86 µM

CCCN(CCC)C(=O)CN [C.I. Solvent Black 5]
IC50: 9.21 µM

CCCCCN(CCCCC)C(=O)C(CCC(=O)O)NC(=O)c1ccc(Cl)c(Cl)c1 (stereo not drawn) [Lorglumide sodium]
IC50: 9.52 µM

CCCCOc1ccc(C(=O)CCN2CCCCC2)cc1 [Dyclonine hydrochloride]
IC50: 20.1 µM

CC1(C)CCC[C@]2(C)[C@H]3CC(=O)O[C@]3(C)CC[C@@H]12 [(3aR)-(+)-Sclareolide]
IC50: 42 µM

CCC(COC(=O)CCS)(COC(=O)CCS)COC(=O)CCS [2,2-Bis{[(3-sulfanylpropanoyl)oxy]methyl}butyl 3-sulfanylpropanoate]
IC50: 38.9 µM

COC(=O)[C@H]1[C@H]2C[C@@H]3c4[nH]c5cc(OC)ccc5c4CCN3C[C@H]2C[C@@H](OC(=O)/C=C/c2ccc(O)c(OC)c2)[C@@H]1OC [Rescimetol]
IC50: 1.57 µM

CO[C@]12C[C@@H](COC(=O)c3cncc(Br)c3)CN(C)[C@@H]1Cc1cn(C)c3cccc2c13 [Nicergoline]
IC50: 1.45 µM

CN[C@H]1CC[C@@H](c2ccc(Cl)c(Cl)c2)c2ccc(S(N)(=O)=O)cc21 [UK-373911]
IC50: 6.92 µM

CCCCC(CC)COC(=O)c1ccc(O)cc1 (stereo not drawn) [2-Ethylhexyl p-hydroxybenzoate]
IC50: 24.5 µM

CCCCCCCCN[C@H](C)[C@@H](O)c1ccc(SC(C)C)cc1 [Suloctidil]
IC50: 0.29 µM

C[C@@H]1CC[C@H]2C(C)(C)[C@H]3C[C@@]12CC[C@@]3(C)O [(+)-Cedrol]
IC50: 43.6 µM

CCCCCCCCCCCCCCNCCO [Myralact]
IC50: 12.5 µM

Cc1cc(C)c(C(=O)P(=O)(c2ccccc2)c2ccccc2)c(C)c1 [Diphenyl(2,4,6-trimethylbenzoyl)phosphine oxide]
IC50: 20.3 µM

O=C(CCS)OCC(COC(=O)CCS)(COC(=O)CCS)COC(=O)CCS [3-[(3-Sulfanylpropanoyl)oxy]-2,2-bis{[(3-sulfanylpropanoyl)oxy]methyl}propyl 3-sulfanylpropanoate]
IC50: 33.4 µM

CC(C)Nc1cccnc1N1CCN(C(=O)c2cc3cc(NS(C)(=O)=O)ccc3[nH]2)CC1 [Delavirdine]
IC50: 11.1 µM

COc1cc(C(C)=O)ccc1OCCCN1CCC(c2noc3cc(F)ccc23)CC1 [Iloperidone]
IC50: 1.4 µM

CCCCCOc1ccccc1/C(=C\SC)n1ccnc1 [Neticonazole]
IC50: 20.5 µM

O=[N+]([O-])C1(Br)COCOC1 [5-Bromo-5-nitro-1,3-dioxane]
IC50: 51.9 µM

CCCCCCOc1cc(C)c(O)c(C)c1C [1-O-Hexyl-2,3,5-trimethylhydroquinone]
IC50: 31.3 µM

CCCCCCCCCCCC[N+](C)(C)C [Dodecyltrimethylammonium bromide]
IC50: 21 µM

CC(CCc1ccc(O)cc1)NCCc1ccc(O)c(O)c1 (racemic) [DL-Dobutamine]
IC50: 16.9 µM

c1ccc(Sc2ccccc2)cc1 [Diphenyl sulfide]
IC50: 43.6 µM

CCOC(=O)C(C)Oc1ccc(Oc2cnc3cc(Cl)ccc3n2)cc1 (stereo not drawn) [Quizalofop-ethyl]
IC50: 17.1 µM

NC(=O)C1(N2CCCCC2)CCN(CCCC(=O)c2ccc(F)cc2)CC1 [Pipamperone dihydrochloride]
IC50: 20.1 µM

CCN(CC)CCOC(=O)C(C)(c1ccccc1)c1ccccc1 [Aprofene]
IC50: 9.16 µM

CC(C)Oc1cccc(NC(=O)c2ccccc2C(F)(F)F)c1 [Flutolanil]
IC50: 50.9 µM

Cc1[nH]cnc1C[C@H]1CCc2c(C)c3ccccc3n2C1=O [Fabesetron hydrochloride]
IC50: 7.01 µM

c1ccc(CSCc2ccccc2)cc1 [Benzyl sulfide]
IC50: 47 µM

O=[N+]([O-])c1cccc(S(=O)(=O)NCCNS(=O)(=O)c2cccc([N+](=O)[O-])c2)c1 [Dinsed]
IC50: 14.5 µM

CCCCCCCCCCCCCC[n+]1ccccc1 [Tetradecylpyridinium bromide]
IC50: 5.49 µM

CCCCCCCCCCCCn1cc[n+](C)c1 [1-Dodecyl-3-methylimidazolium iodide]
IC50: 10.6 µM

CCOC(=O)COc1ccc2c(C)c(CCN(CC)CC)c(=O)oc2c1Cl [Cloricromen hydrochloride]
IC50: 20.5 µM

CC(C)(C)CC(C)(C)c1ccc(O)cc1 [4-(1,1,3,3-Tetramethylbutyl)phenol]
IC50: 21.3 µM

CCOP(=S)(Oc1ccc([N+](=O)[O-])cc1)c1ccccc1 (stereo not drawn) [EPN]
IC50: 0.776 µM

CCCCCCCCCCCCCCCCn1cc[n+](C)c1 [1-Hexadecyl-3-methylimidazolium tetrafluoroborate]
IC50: 9.86 µM

CCN(CC)CCNC(C(=O)OCCC(C)C)c1ccccc1 (stereo not drawn) [Camylofin]
IC50: 6.74 µM

Clc1ccc(CCC(Cn2ccnc2)Sc2c(Cl)cccc2Cl)cc1 (stereo not drawn) [Butoconazole nitrate]
IC50: 5.35 µM

CC(CN1c2ccccc2Sc2ccccc21)N(C)C (stereo not drawn) [Promethazine hydrochloride]
IC50: 23 µM

Cc1cc(C(C)(C)c2ccc(O)c(C)c2)ccc1O [3,3'-Dimethylbisphenol A]
IC50: 41.6 µM

CCc1oc2ccccc2c1C(=O)c1cc(Br)c(O)c(Br)c1 [Benzbromarone]
IC50: 10.7 µM

CC(=O)c1cc2c(cc1C)C(C)(C)C(C)CC2(C)C (stereo not drawn) [Tonalide]
IC50: 20.3 µM

CSc1ccc2c(c1)C(N1CCN(C)CC1)Cc1ccccc1S2 (stereo not drawn) [Metitepine]
IC50: 1.15 µM

C#CCOC(=O)[C@@H](C)Oc1ccc(Oc2ncc(Cl)cc2F)cc1 [Clodinafop-propargyl]
IC50: 41 µM

Cc1ccc(-c2ccccc2)cc1 [4-Phenyltoluene]
IC50: 49 µM

NNc1nc(-c2ccc([N+](=O)[O-])cc2)cs1 [2-Hydrazino-4-(4-nitrophenyl)thiazole]
IC50: 23.6 µM

CCCCC(CC)C(=O)OCCOCCOCCOCCOC(=O)C(CC)CCCC (stereo not drawn) [Tetraethylene glycol di(2-ethylhexanoate)]
IC50: 11 µM

c1ccc(-c2ccc(C(c3ccccc3)n3ccnc3)cc2)cc1 (stereo not drawn) [Bifonazole]
IC50: 12.5 µM

CCCC(=O)O[C@]1(C(=O)CCl)[C@@H](C)C[C@H]2[C@@H]3CCC4=CC(=O)C=C[C@]4(C)[C@@]3(F)C(=O)C[C@@]21C [Clobetasone butyrate]
IC50: 8.01 µM

CCN(CC)C(=O)c1cc(S(=O)(=O)Cc2ccccc2)c(N2CCC(c3ccccc3)CC2)cc1N(CC)CCN(C)C [HMR1171 trifluoroacetate (1:1)]
IC50: 2.72 µM

COc1ccc(CN(CCN(C)C)c2ccccn2)cc1 [Pyrilamine]
IC50: 27.4 µM

Source: article PMC8869358, “High-Throughput Chemical Screening and Structure-Based Models to Predict hERG Inhibition” (Biology, 2022)
